In brackets after ≈: the same amount, converted by molar mass.
Assays:
Escherichia coli = experiment: Antibacterial activity against Escherichia coli ATCC 25922 by visual method; format: functional
Pseudomonas aeruginosa = experiment: Antibacterial activity against Pseudomonas aeruginosa ATCC 27853 by visual method; format: functional
Salmonella enterica [1] = experiment: Antibacterial activity against Salmonella enterica 87 by visual method; format: functional
Salmonella enterica [2] = experiment: Inhibition of Salmonella enterica Threonyl-tRNA synthetase assessed as reduction in aminoacylation activity at 100 uM using L-threonine as substrate incubated for 3 hrs by Kinase-glo luminescence assay relative to control
Salmonella enterica [3] = experiment: Binding affinity to Salmonella enterica Threonyl-tRNA synthetase assessed as change in melting temperature at 0.5 mM incubated for 10 mins by SYPRO orange dye-based thermal shift assay
[4] = Inhibition of Salmonella enterica Threonyl-tRNA synthetase assessed as reduction in aminoacylation activity using L-threonine as substrate in presence of incubated for 3 hrs by Kinase-glo luminescence assay
Enterococcus faecalis = experiment: Antibacterial activity against Enterococcus faecalis ATCC 29212 by visual method; format: functional
Staphylococcus aureus [5] = experiment: Antibacterial activity against methicillin-resistant Staphylococcus aureus R3708 by visual method; format: functional
Staphylococcus aureus [6] = experiment: Antibacterial activity against Staphylococcus aureus ATCC 29213 by visual method; format: functional
[7] = Binding affinity to Salmonella enterica Threonyl-tRNA synthetase at 200 uM by isothermal titration calorimetry

Structure (SMILES) | inhibition (Salmonella enterica [2]) | ΔTm (Salmonella enterica [3]) | IC50 [4] | further results
CC1(C)S[C@@H]2[C@H](NC(=O)[C@H](N)c3ccccc3)C(=O)N2[C@H]1C(=O)O [AMPICILLIN] | – | – | – | MIC (Escherichia coli): 1 µg/mL (≈ 2.86 µM); MIC (Pseudomonas aeruginosa): 1 µg/mL (≈ 2.86 µM); MIC (Salmonella enterica [1]): 1 µg/mL (≈ 2.86 µM)
COc1cc2c(=O)n(C/C=C/CNC(=O)[C@@H](N)[C@@H](C)O)cnc2cn1 | 17% | 9.6 °C | – | –
C[C@@H](O)[C@H](N)C(=O)OCCCCCCn1cnc2cc(Br)c(Cl)cc2c1=O | 32% | 9.9 °C | – | –
C[C@@H](O)[C@H](N)C(=O)NC/C=C/Cn1cnc2cc(Cl)c([N+](=O)[O-])cc2c1=O | 0% | 0.5 °C | – | –
C[C@@H](O)[C@H](N)C(=O)NC/C=C/Cn1cnc2cc(F)c(F)cc2c1=O | 77% | 17.2 °C | 39.4 µM | –
C[C@@H](O)[C@H](N)C(=O)NC/C=C/Cn1cnc2cc(Cl)c(F)cc2c1=O | 93% | 18.8 °C | 9.7 µM | –
C[C@@H](O)[C@H](N)C(=O)OCCCn1cnc2cc(Br)c(Cl)cc2c1=O | 0% | 7.5 °C | – | –
CN[C@H](CC(C)C)C(=O)N[C@H]1C(=O)N[C@@H](CC(N)=O)C(=O)N[C@H]2C(=O)N[C@H]3C(=O)N[C@H](C(=O)N[C@H](C(=O)O)c4cc(O)cc(O)c4-c4cc3ccc4O)[C@H](O)c3ccc(c(Cl)c3)Oc3cc2cc(c3O[C@@H]2O[C@H](CO)[C@@H](O)[C@H](O)[C@H]2O[C@H]2C[C@](C)(N)[C@H](O)[C@H](C)O2)Oc2ccc(cc2Cl)[C@H]1O [VANCOMYCIN] | – | – | – | MIC (Enterococcus faecalis): 2 µg/mL (≈ 1.38 µM)
C[C@@H](O)[C@H](N)C(=O)NC/C=C/Cn1cnc2cc(Cl)ncc2c1=O | 34% | 8.6 °C | – | –
C[C@@H](O)[C@H](N)C(=O)NC/C=C/Cn1cnc2cc(Br)c(Cl)cc2c1=O | 99% | 22.5 °C | 3.2 µM | MIC (Escherichia coli): 32 µg/mL (≈ 74.5 µM); MIC (Staphylococcus aureus [5]): 64 µg/mL (≈ 149 µM); MIC (Pseudomonas aeruginosa): 32 µg/mL (≈ 74.5 µM); MIC (Staphylococcus aureus [6]): 32 µg/mL (≈ 74.5 µM); MIC (Enterococcus faecalis): 64 µg/mL (≈ 149 µM); MIC (Salmonella enterica [1]): 16 µg/mL (≈ 37.2 µM)
C[C@@H](O)[C@H](N)C(=O)N1CCC(C(=O)Cn2cnc3cc(Br)c(Cl)cc3c2=O)CC1 | 0% | 0 °C | – | –
C[C@@H](O)[C@H](N)C(=O)OCCCCn1cnc2cc(Br)c(Cl)cc2c1=O | 42% | 10.2 °C | – | –
C[C@@H](O)[C@H](N)C(=O)NC/C=C/Cn1cnc2cc3c(cc2c1=O)OCO3 | 5% | 9.5 °C | – | –
C[C@@H](O)[C@H](N)C(=O)OCCCCCn1cnc2cc(Br)c(Cl)cc2c1=O | 30% | 9.8 °C | – | –
O=C(CC1NCCCC1O)Cn1cnc2cc(Br)c(Cl)cc2c1=O (stereo unspecified) [HALOFUGINONE] | 5% | -1.4 °C | – | MIC (Escherichia coli): 64 µg/mL (≈ 154 µM); MIC (Staphylococcus aureus [5]): 64 µg/mL (≈ 154 µM); MIC (Pseudomonas aeruginosa): 64 µg/mL (≈ 154 µM); MIC (Staphylococcus aureus [6]): 64 µg/mL (≈ 154 µM); MIC (Enterococcus faecalis): 128 µg/mL (≈ 309 µM); MIC (Salmonella enterica [1]): 64 µg/mL (≈ 154 µM)
C[C@@H](O)[C@H](N)C(=O)OC/C=C/Cn1cnc2cc(Br)c(Cl)cc2c1=O | 96% | 15.7 °C | 9.6 µM | –
C[C@@H](O)[C@H](N)C(=O)N1CCC(Cn2cnc3cc(Br)c(Cl)cc3c2=O)CC1 | 23% | 12.4 °C | – | –
C[C@@H](O)[C@H](N)C(=O)NCCCCCCn1cnc2cc(Br)c(Cl)cc2c1=O | 96% | 12.4 °C | 7.3 µM | –
C[C@@H](O)[C@H](N)C(=O)NC/C=C/Cn1cnc2ccccc2c1=O | 15% | 9.2 °C | – | –
C[C@@H](O)[C@H](N)C(=O)NC/C=C/Cn1cnc2cc3ccccc3cc2c1=O | 70% | 16.9 °C | 55.5 µM | –
C[C@@H](O)[C@H](N)C(=O)NC/C=C/Cn1cnc2cc(Cl)c(Cl)cc2c1=O | 101% | 23.7 °C | 1.4 µM | MIC (Escherichia coli): 16 µg/mL (≈ 41.5 µM); MIC (Staphylococcus aureus [5]): 32 µg/mL (≈ 83.1 µM); Kd [7]: 1.36 µM; MIC (Pseudomonas aeruginosa): 32 µg/mL (≈ 83.1 µM); MIC (Staphylococcus aureus [6]): 32 µg/mL (≈ 83.1 µM); MIC (Enterococcus faecalis): 32 µg/mL (≈ 83.1 µM); MIC (Salmonella enterica [1]): 16 µg/mL (≈ 41.5 µM)
C[C@@H](O)[C@H](N)C(=O)NC/C=C/Cn1cnc2cc(Br)c(Br)cc2c1=O | 100% | 20.3 °C | 2.4 µM | –
Cc1cc2ncn(C/C=C/CNC(=O)[C@@H](N)[C@@H](C)O)c(=O)c2cc1C | 7% | 10.6 °C | – | –
C[C@@H](O)[C@H](N)C(=O)NC/C=C/Cn1cnc2cc(C(F)(F)F)ccc2c1=O | 21% | 11.9 °C | – | –
C[C@@H](O)[C@H](N)C(=O)NC/C=C/Cn1cnc2cnc(F)cc2c1=O | 36% | 12 °C | – | –
C[C@@H](O)[C@H](N)C(=O)NC/C=C/Cn1cnc2cnc(Cl)cc2c1=O | 68% | 14.9 °C | 49.7 µM | –
C[C@@H](O)[C@H](N)C(=O)NCCCCCn1cnc2cc(Br)c(Cl)cc2c1=O | 87% | 14 °C | 29.7 µM | –
COc1cc2ncn(C/C=C/CNC(=O)[C@@H](N)[C@@H](C)O)c(=O)c2cc1OC | 0% | 1.5 °C | – | –
C[C@@H](O)[C@H](N)C(=O)NC/C=C/Cn1cnc2cc3c(cc2c1=O)OCCO3 | 0% | 0.6 °C | – | –
C[C@@H](O)[C@H](N)C(=O)NS(=O)(=O)c1cccc(-c2ccc3[nH]ncc3c2)c1 | 100% | 29.5 °C | 0.13 µM | MIC (Escherichia coli): > 256 µg/mL; MIC (Staphylococcus aureus [5]): > 256 µg/mL; MIC (Pseudomonas aeruginosa): > 256 µg/mL; MIC (Staphylococcus aureus [6]): > 256 µg/mL; MIC (Enterococcus faecalis): > 256 µg/mL; MIC (Salmonella enterica [1]): > 256 µg/mL

Reference: ChEMBL document CHEMBL4402548, “Discovery of novel tRNA-amino acid dual-site inhibitors against threonyl-tRNA synthetase by fragment-based target hopping” (Eur J Med Chem, 2020)
